Assay [1] relates to Nucleic Acid. Nature of the assay: Compound was tested for inhibitory activity against tryptophanyl tRNA synthetase in Staphylococcus aureus Oxford; No significant inhibition up to 20 uM concentration. The assay is classed as nucleic-acid assay.
A short description of assay [2]: Compound was tested for inhibitory activity against tryptophanyl tRNA synthetase in Staphylococcus aureus. The format is nucleic-acid assay.
Assay [3] deals with Moraxella catarrhalis. Nature of the assay: Minimum inhibitory concentration against Moraxella catarrhalis 1502. The format is functional.
The test system of assay [4] is Haemophilus influenzae. Kind of assay: Minimum inhibitory concentration against Haemophilus influenzae Q1. The format is functional.
In assay [5] the test system is Staphylococcus aureus. Kind of assay: Minimum inhibitory concentration against Staphylococcus aureus oxford. The assay is classed as functional.
Assay [6] addresses Nucleic Acid. Kind of assay: Binding affinity against Tryptophanyl tRNA synthetase was determined. The format is nucleic-acid assay, Staphylococcus aureus.
The test system of assay [7] is Nucleic Acid. Nature of the assay: Compound was tested for inhibitory activity against tryptophanyl tRNA synthetase in Staphylococcus aureus; NI means no inhibition uM. The assay is classed as nucleic-acid assay.
The test system of assay [8] is Haemophilus influenzae. Nature of the assay: Minimum inhibitory concentration against Haemophilus influenzae Q1 at a concentration of 32 ug/mL. The format is functional, organism-based.
Assay [9] concerns Moraxella catarrhalis. Kind of assay: Minimum inhibitory concentration against Moraxella catarrhalis 1502 at a concentration of 32 ug/mL. The format is functional, organism-based.
Assay [10] deals with Staphylococcus aureus. Nature of the assay: Minimum inhibitory concentration against Staphylococcus aureus Oxford at a concentration of 32 ug/mL. The assay is classed as functional, organism-based.

Each structure is given as a SMILES string. Converted amounts (≈) assume the structure as drawn. “And” between values parts separate entries of the source, which are not always exact repeats. Equal values may be shown once. The source made the active and inactive calls. No cut-off for these calls is given here.

As for `CC1c2c[nH]c3cccc(c23)SC1C(N)=O` (stereo unspecified), the Activity entry in the assay on Nucleic Acid [1] is “No significant inhibition up to 20 uM concentration”.

Turning to `O=C1OC[C@H]2c3c[nH]c4cccc(c34)S[C@@H]12`, the IC50 (usually the midpoint of a concentration-inhibition curve) in assay [2] amounted to 230 nM. In addition, the values for the MIC against Moraxella catarrhalis [3], against Haemophilus influenzae [4] and with Staphylococcus aureus [5] were 16 µg/mL (≈ 69.2 µM), 16 µg/mL (≈ 69.2 µM) and 4 µg/mL (≈ 17.3 µM), respectively.

Turning to `C[C@H]1c2c[nH]c3cccc(c23)S[C@H]1C(=O)O` [CHUANGXINMYCIN], the IC50 in [2] was 30 nM and 200 nM. At Nucleic Acid [6], the Ki (as a rule, the equilibrium dissociation constant of an inhibitor or competing ligand from its target) is 20 nM.

Consider `CC1c2c[nH]c3cccc(c23)SC1c1nnn[nH]1` (stereo unspecified), for which the IC50 result in the assay with Nucleic Acid [7] is “No inhibition”.

In assay [2], `CC1c2c[nH]c3cccc(c23)SC1C#N` (stereo unspecified) registered an IC50 of 1100 nM.

In the case of `O=C([O-])[C@@H]1Sc2cccc3[nH]cc(c23)[C@@H]1CO.[Na+]`, the half-inhibitory concentration (IC50) result with Nucleic Acid [7] was “No inhibition”. For the same molecule, the MIC result in the assay on Haemophilus influenzae [8], in the assay with Moraxella catarrhalis [9] and in the assay with Staphylococcus aureus [10] was “inactive” throughout.

For the molecule `CC1c2c[nH]c3cccc(c23)SC1C=O` (stereo unspecified), the IC50 in [2] turned out to be 90 nM.

On to `COC(=O)C1Sc2cccc3[nH]cc(c23)C1C` (stereo unspecified), for which the Activity result in the assay on Nucleic Acid [1] was “No significant inhibition up to 20 uM concentration”.

With `CC1c2c[nH]c3cccc(c23)SC1C(=O)NO` (stereo unspecified), the IC50 result with Nucleic Acid [7] is recorded as “No inhibition”.

The values are drawn from ChEMBL document CHEMBL1134948, “The antimicrobial natural product chuangxinmycin and some synthetic analogues are potent and selective inhibitors of bacterial tryptophanyl tRNA synthetase” (Bioorg Med Chem Lett, 2002).
